This is an account of results in patent US20230263774A1, “OPTIMIZED SURGERY PROTOCOL AND KITS” (Steadman Philippon Research Institute, priority 2020, published 2023).

Entries after “also recorded” stand apart in the source; their conditions may differ.

One assay deals with Z24−/− mice. In words: Senolytic treatment of progeroid Z24−/− mice, articular cartilage degeneration / OA. Type of assay: in vivo. As to conditions: for incidence/severity of age-related disorders including osteoarthritis (OA): progeroid mice accelerated aging model. The source says: The Zmpste24−/− (Z24−/−) model of Hutchinson-Gilford Progeria Syndrome (HGPS) was used to model not only HGPS musculoskeletal decline, but also as a pre-clinical aging model due to its predictable and accelerated aging phenotypes. Z24−/− animals are short lived (˜6 months) and have severe musculoskeletal abnormalities including weight loss, dystonia, sarcopenia, osteoporosis and as reported herein, early signs of bone loss and spontaneous osteoarthritis (OA).
As a proof of concept for the potential of senolytics to reduce AC degeneration, a pilot study was conducted with Dasatinib+Quercitin (D/Q; 5 mg/kg; 50 mg/kg). Z24−/− mice were administered D/Q via oral gavage as a single dose (D/Qsin) at 4 months of age, or monthly dose starting at 2 months of age (D/Qmul) prior to sacrifice at 5 months.

Assay [1] has as its system bone marrow mesenchymal stem cells (BM-MSCs). As to the kind of experiment: Senescent cells in bone marrow mesenchymal stem cells after Fisetin, C12FDG flow cytometry. As to conditions: 33 μM Fisetin 24 hours, passage 3. In kind it is cell-based, human. How it is done:
Reduction in senescent cells in BMSCs after senolytic treatment: To determine a reduction in senescent cells in bone marrow stem cells after senolytic therapy, approximately 5 mL of bone marrow concentrate were obtained from a person. The BMC samples were immediately processed further to isolate the mononuclear layer and plated in a T25 flask to expand BM-MSCs. Bone marrow cells were pre-plated for 3-weeks in basal culture medium (CM) and passaged with CM+Fibroblast Growth Factor (FGF) to expand bone marrow mesenchymal stem cells (BM-MSCs). At passage 3, confluent BM-MSCs were treated with CM+FGF, 33 μM of DMSO, or 33 μM of Fisetin+GM+FGF for 24-hours in a 12-well plate. Then, […] of bafilomycin (inhibits lysosomal acidification) and […] of C12FDG (senescent label) were used to assess senescence via flow cytometry. In BM-MSCs at passage 3, the number of senescent in the Fisetin treated BM-MSCs was reduced by approximately 24% compared to the DMSO treated BM-MSCs, and approximately a 5% reduction of senescent cells was observed when compared to control BM-MSCs (FIG. 27).
Background: A flow cytometer gives signals particle by particle.

For assay [2], the system named is Superoxide Dismutase 1 (SOD1). As to the kind of experiment: qPCR gene expression analysis of synovium harvested from the knee joint (rabbit OD + BMS study). Type of assay: in vivo, New Zealand White rabbits. The note with it: Fisetin-treated group vs control group (p<0.01). The protocol:
(§1) Post-surgical evaluations were to be conducted at two time points: 6 & 12 weeks. Autologous BMAC was injected into the unilateral knee joint cavity immediately after surgery, with no BMAC injection on the other side. Each rabbit was orally treated with Fisetin, Losartan, or a combination of the two biologics from the day after surgery until the day of euthanasia, for comparison with the untreated group. Rabbits were sacrificed 6 weeks or 12 weeks postoperatively. The experimental groups were as follows (N-8 per group): 1) OD+BMS; 2) OD+BMS+oral Fisetin; 3) OD+BMS+oral Losartan; 4) OD+BMS+oral Fisetin+oral Losartan; 5) OD+BMS+BMAC; 6) OD+BMS+BMAC+oral Fisetin; 7) OD+BMS+BMAC+oral Losartan; and 8) OD+BMS+[…].

The subject of assay [3] is human adipose-derived stem cells (ADSCs). As to the kind of experiment: Senescent cells in culture-expanded adipose-derived stem cells, staining for senescence-associated heterochromatin foci (H2AX, H3K9). In kind it is cell-based. The source says:
In preliminary experiments (FIG. 4), pre-existing senescent cells were found in cultured human adipose-derived stem cells (ADSCs). The ability of these cells to produce SASPs can induce significant damage to other stem cells or endogenous cells once re-administered into the intra-articular space. Thus, avoiding the proliferation of senescent cells from long-term expansion is critical to prevent these cells from compromising the ability of adult stem cells to repair cartilage. […] ADSCs from a young person (YF) and old person (OF) were cultured to passage 4 using normal proliferation media (DMEM/F-12, 10% FBS, 1% penicillin/streptomycin). The cells were subsequently treated with 50 μM of Fisetin for 24 hours and then cultured for 48 hours. Senescent cells were identified using antibodies for senescence-associated heterochromatin foci. […] These experiments support that Fisetin can eliminate senescent cells and SASPs in expanded stem cell populations, and this may apply to harvested tissues such as BMC from older OA patients that likely contain senescent cells (see FIGS. 2A-4, above).

Assay [4] has as its system osteochondral defect in the patellar groove of New Zealand White rabbits. As to the kind of experiment: Rabbit osteochondral defect + bone marrow stimulation (BMS) with oral Fisetin, oral Losartan and/or BMAC. In kind it is in vivo. As to conditions: for Microscopic evaluation and micro-CT: 12 weeks postoperatively, with or without BMAC, preliminary; for healing capacity of BMS-mediated osteochondral defects: compared with BMS alone, preliminary results. How it is done: Bone Marrow Collection and BMAC Processing for Autologous Transplant: New Zealand White rabbits were anesthetized to collect bone marrow aspirate (BMA) using an 18 G heparinized spinal needle through both iliac crests simultaneously by two surgeons for the purpose of preparing bone marrow aspirate concentrate (BMAC). Bone marrow samples were collected in 10 ml syringes containing ACD-A as an anticoagulant (˜1.5 ml of ACD-A per 10 ml sample), processed under sterile BSCs, and a benchtop centrifuge was used to prepare BMACs. Filters were also used for BMA prior to processing into BMACs. These procedures were performed under sterile conditions.
A 5 mm diameter osteochondral defect was created in the patellar groove of bilateral knees for 64 New Zealand White rabbits (128 knees). Under a sterile technique, a midline 3 cm incision was made in a knee flexed at approximately 30° and approached intra-articularly through a medial parapatellar incision. The patella was dislocated, and a 5 mm diameter osteochondral defect was created in the patellar groove (depth: 2 mm), followed by BMS. To allow bone marrow MSCs to be introduced into the defect space, five equally spaced holes of 2 mm depth were drilled into the subchondral bone using a 0.7 mm burr. […] Once the creation of the osteochondral defect and the BMS procedure was completed, the joint capsule was closed and 0.5 ml of BMAC was injected into the joint cavity of the left knee.
as §1

Assay [5] relates to senescent CD3+ T-Cells and plasma biomarkers. As to the kind of experiment: Single case: patient on Fisetin, senescent CD3+ T-Cells (C12FDG) and plasma biomarkers. Type of assay: in vivo, human. As to conditions: 150 days of Fisetin 100 mg/day. The protocol:
Another flow cytometry-based approach was optimized to assess senescent total PBMCs and CD3+ T-Cells from fresh human peripheral blood. For this approach, T-Cells were isolated from PBMCs, washed, then stained with the senescence marker C12FDG for 1 hr, and then used for flow cytometry analysis. Cells were identified using FSC and SSC controls, while senescent cells, or C12FDG+ events, were identified with an emission of 514 nm (green channel).
Thus, it was tested whether Fisetin could reduce senescent T-Cells and plasma biomarkers for OP in a single patient enrolled in the study that disclosed Fisetin use between blood draws. […] This was commensurate with a reduction in OP markers OPG, OPN, and SOST in addition to the pro-inflammatory SASP marker TNF-α (FIG. 25B). […] In addition, in a single case study, C12FDG staining was sensitive enough to detect reductions in senescent T-Cells associated with reduction in OP and SASP biomarkers following Fisetin therapy.

The test system of assay [6] is PBMCs from fresh human peripheral blood. As to the kind of experiment: Fisetin treatment of isolated PBMCs, C12FDG / DRAQ7 flow cytometry. Type of assay: cell-based. The source says:
A flow cytometry-based approach to assess senescent total PBMCs from fresh human peripheral blood was optimized. Cells were identified using FSC and SSC controls (FIG. 19A), while senescent cells, or C12FDG+ events, were identified with an emission of 514 nm (green channel).
To examine cellular phenotypes of C12FDG-stained cells, low, moderate, and high populations were sorted using FACS for two study participants (FIG. 20A). […] Using the same methodology, the rate and senolytic efficacy of Fisetin treatment were determined on PBMCs directly at 1, 4, 18, and 24 hr timepoints. […] Furthermore, the rate of senolytic activity of Fisetin was faster versus other known senotherapeutic drugs such as metformin, dasatinib, or quercetin (FIG. 21D).
Thus, it was next tested whether the reduction of highly senescent cells by Fisetin was associated with co-incident cell death. To this end, cells were co-stained with the viability stain DRAQ7.

The test system of assay [7] is osteochondral defect in the patellar groove of New Zealand White rabbits. As to the kind of experiment: Rabbit osteochondral defect model, microfracture plus oral Losartan. In kind it is in vivo. How it is done: An osteochondral defect (diameter: 5 mm, depth: 2 mm) was made in the patellar groove of 48 New Zealand White rabbits. The rabbits were divided into 3 groups (8/group/time point): control (osteochondral defect only), microfracture (defect+microfracture), and Losartan (defect+microfracture+Losartan). For the Losartan group, a dose of 10 mg/kg/day of Losartan was orally administrated by mixing with the chew treat daily.

For assay [8] the test system is unchanged. The note with it: 6 weeks after surgery; Losartan 10 mg/kg/day oral; cited from earlier work.

`CO[C@H]1/C=C\C=C(/C)C(=O)NC2=CC(=O)C(NCCN(C)C)=C(C[C@@H](C)C[C@H](OC)[C@H](O)[C@@H](C)/C=C(\C)[C@@H]1OC(N)=O)C2=O` [Alvespimycin]: the “incidence/severity of age-related disorders including osteoarthritis (OA)” value (from here on “incidence/severity”) in the assay with Z24−/− mice is recorded as “can reduce”.

On to `O=c1c(O)c(-c2ccc(O)c(O)c2)oc2cc(O)ccc12` [Fisetin, 2-(3,4-dihydroxyphenyl)-3,7-dihydroxychromen-4-one], for which, in the assay on Z24−/− mice (murine model of natural and accelerated (progeria) aging), the articular cartilage degeneration entry is on record as “delay”. Also, in the assay with Z24−/− mice, the “incidence/severity” value is reported as “can reduce”. Further, the “reduction of number of senescent cells in BM-MSCs” value in assay [1] (compared to DMSO treated BM-MSCs) is “approximately 24%”. Moreover, the “reduction of senescent cells in BM-MSCs” value in [1] (compared to control BM-MSCs (CM+FGF)) is reported as “approximately 5%”. Besides, the “expression level of Superoxide Dismutase 1 (SOD1) in the synovium” value in [2] is recorded as “significantly higher”. For the same compound, in assay [3] (50 μM Fisetin for 24 hours, then cultured 48 hours, passage 4 ADSCs from young and old female), the “number of senescent cells in the expanded ADSCs in vitro” value is “significantly reduced”. Also, in assay [3] (FIG. 4, senescence quantified by H2AX and H3K9 staining), the “-H2AX and H3K9 in Adipose Derived Stem Cells” value is given as “reduces”. Moreover, the “Macroscopic assessment, gross images compared to the control group” value in assay [4] (6 weeks postoperatively, control = BMS, without medication, without BMAC) is reported as “significant improvement”. Also, in assay [4], the “Microscopic evaluation and micro-CT” value is given as “trend toward improvement”; the “healing capacity of BMS-mediated osteochondral defects” value is listed as “enhanced”. Besides, the “levels of moderately and highly senescent CD3+ T-Cells” value in assay [5] was “reduces”. For the same compound, in [5] (pre- vs. post-Fisetin), the “OP marker OPG in plasma” value is recorded as “reduction”, the “OP marker OPN in plasma” value is reported as “reduction”, the “OP marker SOST in plasma” value is listed as “reduction” and the “pro-inflammatory SASP marker TNF-α in plasma” value was “reduction”. Also, in assay [6] (Fisetin on PBMCs directly), the “time of maximum reduction of high senescent cells” value came to 4 h and the “time to significant reduction of high senescent cells” value was not above 1 h. Also, the “high senescent cell counts and percent senescent cells” value in assay [6] (Fisetin on PBMCs directly, timepoints 1, 4, 18, 24 hr) is listed as “significantly reduced”. Also, in assay [6] (co-stained with viability stain DRAQ7, 1 and 4 hrs), the “DRAQ7+ cells (cell death) with decrease in highly senescent cells” value is on record as “concomitant increases”. Also, the “effect on highly senescent cells vs moderately senescent cells” value in [6] (isolated PBMCs (FIG. 22D)) is “primarily affect only highly senescent cells and not moderately senescent cells; also recorded: selectively kills highly senescent cells”. Also, the “rate of senolytic activity” value in assay [6] (versus metformin, dasatinib, or quercetin (FIG. 21D)) is “faster”.

For the compound `CCCCc1nc(Cl)c(CO)n1Cc1ccc(-c2ccccc2-c2nn[nH]n2)cc1` [Losartan], the ICRS macroscopic score in assay [7] (12 weeks, Losartan 10 mg/kg/day oral + microfracture) is recorded as 11.7±0.5. Further, the “modified O'Driscoll score (based on Safranin O staining) compared to the other 2 groups” value in [7] (Losartan 10 mg/kg/day oral + microfracture) is recorded as “significantly higher”. Besides, the “Immunohistochemistry staining of cartilage (Col2)” value in assay [7] (Losartan treatment group) is reported as “nearly normal structure with hyaline-like column-arranged chondrocytes”. In assay [4], the “Microscopic evaluation and micro-CT” value is “trend toward improvement”; the “healing capacity of BMS-mediated osteochondral defects” value is “enhanced”. Further, the “articular cartilage repair compared to microfracture or control groups” value in assay [8] is recorded as “significantly improved”.

Consider `O=c1c(O)c(-c2ccc(O)c(O)c2)oc2cc(O)cc(O)c12` [Quercetin], for which the “incidence/severity” value with Z24−/− mice is “can reduce”.
